Each molecule was assayed against T1, recombinant active human PAI-1 (Homo sapiens (Human), UniProt P05121) (assay: Fluorometric PAI-1/uPA IC50 plate assay at pH 7.4). Settings: physiologic buffer (40 mM HEPES, 100 mM NaCl, 0.05% Tween-20, 10% DMSO), read-out: PAI-1/uPA IC50 in buffer.
Type: biochemical
Experimental: To determine the efficacy of various synthesized compounds as PAI-1 inhibitors, a fluorometric plate assay was carried out to measure the half maximal inhibitory concentration (IC50) of these compounds on recombinant active human PAI-1 in vitro. An IC50 is a measure of the effectiveness of a compound in inhibiting biological or biochemical function. Stated another way, IC50 represents the concentration of a drug that is required for 50% inhibition in vitro.
PAI-1 inhibitor compounds were dissolved in DMSO to a final concentration of (10-50 mM), depending upon solubility. Compounds were then diluted in physiologic buffer (40 mM HEPES, 100 mM NaCl, 0.05% Tween-20, pH7.4) containing 10% DMSO and a dilution series (from 0 to 1000 uM depending on solubility) was prepared. 80 μL of compound was added per well to a 96-well black, opaque microplate in duplicate. 10 μL of 20 nM Recombinant active human PAI-1 (Molecular Innovations) in physiologic buffer (40 mM HEPES, 100 mM NaCl, 0.05% Tween-20, 10% DMSO, pH 7.4), or […] physiologic buffer with 10% human plasma, was added and the mixture was agitated for 15 minutes at room temperature. 10 μL of 25 nM uPA (Rheotromb®) was added to each reaction well and the plate was agitated for an additional 30 minutes at room temperature. Tripeptide aminomethylcoumarin Gly-Gly-Arg-AMC (Calbiochem) fluorogenic substrate (100 μL of 100 μM) was then added and residual uPA activity was determined based upon cleavage of this substrate. The rate of AMC release by uPA (fluorescence) was measured at an excitation wavelength of 370 nm and an emission wavelength of 440 nm. Controls included PAI-1 and uPA in the absence of compound and uPA alone. Percent PAI-1 inhibition was calculated using the following formula: [(uPA alone-uPA/PAI-1+ compound)/(uPA alone-PAI-1/uPA)]*100%. The IC50 was calculated using Graphit (IC50 0-100%).

T1 sequence (P05121 24-402): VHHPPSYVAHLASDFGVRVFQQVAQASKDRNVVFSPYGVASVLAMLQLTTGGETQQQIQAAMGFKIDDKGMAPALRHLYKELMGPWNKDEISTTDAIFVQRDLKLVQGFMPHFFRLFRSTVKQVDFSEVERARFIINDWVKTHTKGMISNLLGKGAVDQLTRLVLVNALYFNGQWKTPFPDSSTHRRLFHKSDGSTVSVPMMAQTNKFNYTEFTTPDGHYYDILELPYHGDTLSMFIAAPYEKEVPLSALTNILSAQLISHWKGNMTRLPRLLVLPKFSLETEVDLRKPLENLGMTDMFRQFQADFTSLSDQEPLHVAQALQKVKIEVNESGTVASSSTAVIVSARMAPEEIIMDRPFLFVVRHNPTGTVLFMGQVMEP

Compound	IC50
CCCCCCCCN(S(=O)(=O)c1ccc(O)cc1)S(=O)(=O)c1cccc(O)c1 [C294]	234 µM
CCCCCCCCN(S(=O)(=O)c1cccc(O)c1)S(=O)(=O)c1ccc(O)c(O)c1 [C292]	68 µM
O=S(=O)(NCc1ccc(Cl)c(C(F)(F)F)c1)c1ccc(O)c(O)c1 [C303]	12.6 µM
CCCCCCCCN(S(=O)(=O)c1cccc(O)c1)S(=O)(=O)c1cccc(O)c1 [C293]	123 µM
O=C(CCc1ccc(O)c(O)c1)NCc1ccc(Cl)c(C(F)(F)F)c1 [C330, N-(4-chloro-3-(trifluoromethyl)benzyl)-3-(3,4-dihydroxyphenyl)propanamide]	365 µM
O=C(NCc1cccc(C(F)(F)F)c1)c1ccc(O)c(O)c1 [C364]	475 µM
O=C1Cc2cc(C(=O)CNCCNCC(=O)c3ccc4c(c3)CC(=O)N4)ccc2N1 [C225, 5,5′-(2,2′-(ethane-1,2-diylbis(azanediyl))bis(acetyl))bis(indolin-2-one)]	163 µM
NNC(=O)CCC(=O)NCc1ccc(F)c(C(F)(F)F)c1 [C287]	1190 µM

Same assay, conditions: physiologic buffer with 1.5% BSA (15 mg/mL), read-out: PAI-1/uPA IC50 in 1.5% BSA buffer

Compound	IC50
O=C(CCc1ccc(O)c(O)c1)NCc1ccc(Cl)c(C(F)(F)F)c1 [C330, N-(4-chloro-3-(trifluoromethyl)benzyl)-3-(3,4-dihydroxyphenyl)propanamide]	112 µM
O=C(NCc1cccc(C(F)(F)F)c1)c1ccc(O)c(O)c1 [C364]	898 µM
NNC(=O)CCC(=O)NCc1ccc(F)c(C(F)(F)F)c1 [C287]	363 µM

Same assay, conditions: physiologic buffer with 10% human plasma, read-out: PAI-1/uPA IC50 in 10% plasma buffer

Compound	IC50
O=C(CCc1ccc(O)c(O)c1)NCc1ccc(Cl)c(C(F)(F)F)c1 [C330, N-(4-chloro-3-(trifluoromethyl)benzyl)-3-(3,4-dihydroxyphenyl)propanamide]	115 µM
O=C(NCc1cccc(C(F)(F)F)c1)c1ccc(O)c(O)c1 [C364]	533 µM
NNC(=O)CCC(=O)NCc1ccc(F)c(C(F)(F)F)c1 [C287]	304 µM

These molecules were tested against T1, recombinant active human PAI-1 (assay: Fluorometric PAI-1/uPA IC50 plate assay at pH 7.8). Settings: physiologic buffer.
Type: biochemical
Experimental: To determine the efficacy of various synthesized compounds as PAI-1 inhibitors at pH 7.8, additional fluorometric plate assays were carried out to measure the half maximal inhibitory concentration (IC50) of these compounds on recombinant active human PAI-1 in vitro.
PAI-1 inhibitor compounds were dissolved in DMSO to a final concentration of (10-50 mM), depending upon solubility. […] Fluorescence, as a measure of the rate of AMC release by uPA, was read at the following wavelengths; excitation 370 nm, emission 440 nm. Controls included PAI-1 and uPA in the absence of compound and uPA alone. Percent PAI-1 inhibition was calculated using the following formula: [(uPA alone-uPA/PAI-1+ compound)/(uPA alone-PAI-1/uPA)]*100%. The IC50 was calculated using Graphit (IC50 0-100%).

Compound	IC50
CCCCCCCCN(S(=O)(=O)c1ccc(CCCCC)cc1)S(=O)(=O)c1ccc(O)c(O)c1 [C191]	1.28 µM
CCCCCCCCN(Cc1cc(Cl)c(O)c(Cl)c1)S(=O)(=O)c1ccc(O)c(O)c1 [C172]	1.98 µM
CC(C)(C)n1nc(-c2ccccc2)nc1-c1ccc(O)c(O)c1 [C201, 4-(1-(tert-butyl)-3-phenyl-1H-1,2,4-triazol-5-yl)benzene-1,2-diol]	181 µM
CCCCCc1nc(Cc2ccc(O)c(O)c2)n(C(C)(C)C)n1 [C223]	125 µM
CCCCCCCCN(CC(O)c1ccccc1)S(=O)(=O)c1ccc(O)c(O)c1 (stereo not drawn) [C175]	6.74 µM
O=S(=O)(Nc1ccc(-c2cccc(F)c2)cc1)c1ccc(O)c(O)c1 [C190]	9.7 µM
O=S(=O)(NCCc1ccc(O)c(O)c1)c1ccc(O)c(O)c1 [C198]	0.051 µM
O=S(=O)(NCCc1ccc(O)c(O)c1)c1ccccc1 [C210]	190 µM
CCCCCCc1ccc(N(S(=O)(=O)c2ccc(O)c(O)c2)S(=O)(=O)c2ccc(O)c(O)c2)cc1 [C188]	0.12 µM
CCCCCCCCN(S(=O)(=O)c1ccc(O)cc1)S(=O)(=O)c1ccc(O)c(O)c1 [C224]	4.34 µM
CCCCCCCN(S(=O)(=O)c1ccc(O)c(O)c1)S(=O)(=O)c1ccc(O)c(O)c1 [C182]	0.033 µM
O=C1S/C(=C\c2ccc(O)c(O)c2)C(=O)N1Cc1cccc(-c2ccc(OC(F)(F)F)cc2)c1 [C207, (Z)-5-(3,4-dihydroxybenzylidene)-3-((4′-(trifluoromethoxy)-[1,1′-biphenyl]-3-yl)methyl)thiazolidine-2,4-dione]	16.8 µM
CCCCCCCCCN(CCN(CCCCCCCCC)S(=O)(=O)c1ccc(O)c(O)c1)S(=O)(=O)c1ccc(O)c(O)c1 [C185]	0.42 µM
O=S(=O)(NCCc1ccccc1)c1ccc(O)c(O)c1 [C233]	74.8 µM
CCCCCc1nc(Cc2ccc(O)c(O)c2)n(C(C)(C)C)n1 [C220]	116 µM
O=C(O)[C@@H](Cc1ccccc1)NS(=O)(=O)c1ccc(O)c(O)c1 [C275]	30.5 µM
CC(C)(C)n1nc(-c2ccccc2)nc1Cc1ccc(O)c(O)c1 [C208]	77.2 µM
CCCCCCCCCN(S(=O)(=O)c1ccc(O)c(O)c1)S(=O)(=O)c1ccc(O)c(O)c1 [C183]	0.18 µM
CCCCCCc1ccc(N(S(=O)(=O)c2ccc(CCC)cc2)S(=O)(=O)c2ccc(O)c(O)c2)cc1 [C189]	2.29 µM
CCCCCCN(CCCCCC)S(=O)(=O)c1ccc(O)c(O)c1 [C171]	1.67 µM
O=C1S/C(=C\c2ccc(O)c(O)c2)C(=O)N1Cc1ccccc1 [C199]	5.36 µM
O=C(OCC(CNS(=O)(=O)c1cccc(C(F)(F)F)c1)OC(=O)c1ccc(O)c(O)c1)c1ccc(O)c(O)c1 (stereo not drawn) [C204]	0.035 µM
CCCCCCCCN(S(=O)(=O)c1ccc(O)cc1)S(=O)(=O)c1cccc(O)c1 [C294]	120 µM
CCCCCCCCCCCCc1ccc(N(S(=O)(=O)c2ccc(O)c(O)c2)S(=O)(=O)c2ccc(O)c(O)c2)cc1 [C195]	0.92 µM
CCCCN(C)C(=O)CSc1ccc(O)c(O)c1 [C200]	58.4 µM
CCCCCCCCN(S(=O)(=O)c1cccc(O)c1)S(=O)(=O)c1ccc(O)c(O)c1 [C292]	4.94 µM
O=C(O)[C@H](Cc1ccccc1)NS(=O)(=O)c1ccc(O)c(O)c1 [C272]	16.4 µM
CCCCCCCCN(Cc1cccc(Cl)c1)S(=O)(=O)c1ccc(O)c(O)c1 [C177]	5.11 µM

Compound	IC50
O=C(OCCOC(=O)c1ccc(O)c(O)c1)c1cc(O)cc(O)c1 [C236]	174 µM
CCCCCCCCN(CCCCCCCC)S(=O)(=O)c1ccc(O)c(O)c1 [C170]	5.49 µM
CCCCCCc1ccc(NS(=O)(=O)c2ccc(O)c(O)c2)cc1 [C187]	0.91 µM
CCCCCCCN(CCN(CCCCCCC)S(=O)(=O)c1ccc(O)c(O)c1)S(=O)(=O)c1ccc(O)c(O)c1 [C184]	0.59 µM
O=C(O)CCCCCNS(=O)(=O)c1ccc(O)c(O)c1 [C271]	1.82 µM
CCCCCCCCCCN(CCN(CCCCCCCCCC)S(=O)(=O)c1ccc(O)c(O)c1)S(=O)(=O)c1ccc(O)c(O)c1 [C168]	1.98 µM
O=C1S/C(=C\c2ccc(O)c(O)c2)C(=O)N1Cc1ccc(Br)cc1 [C203]	17.1 µM
O=S(=O)(c1ccc(O)c(O)c1)N1CCC[C@H]1CCc1ccccc1 [C186]	6.98 µM
O=S(=O)(NCc1ccc(Cl)c(C(F)(F)F)c1)c1ccc(O)c(O)c1 [C303]	13.6 µM
O=C(O)[C@H](NS(=O)(=O)c1ccc(O)c(O)c1)c1ccccc1 [C274]	73.6 µM
O=S(=O)(c1ccc(O)c(O)c1)N1CCc2ccccc21 [C205]	5.05 µM
NC(=O)[C@H](Cc1ccccc1)NS(=O)(=O)c1ccc(O)c(O)c1 [C270]	29.5 µM
CCCCCCCCN(S(=O)(=O)c1ccc(-c2ccc(OC(F)(F)F)cc2)cc1)S(=O)(=O)c1ccc(O)c(O)c1 [C173]	19.2 µM
CC(C)(C)n1nc(-c2ccc(O)cc2)nc1Cc1ccc(O)c(O)c1 [C222]	236 µM
CCCCCCCCN(S(=O)(=O)c1cccc(O)c1)S(=O)(=O)c1cccc(O)c1 [C293]	77.6 µM
O=S(=O)(NCCCc1ccccc1)c1ccc(O)c(O)c1 [C232]	13.3 µM
CCCCCCCCCCN(CCN(C)S(=O)(=O)c1ccc(O)c(O)c1)S(=O)(=O)c1ccc(O)c(O)c1 [C196]	0.45 µM
O=C(O)[C@@H](NS(=O)(=O)c1ccc(O)c(O)c1)c1ccccc1 [C273]	55.6 µM
CCCCCCCCN(CCN(CCCCCCCC)S(=O)(=O)c1ccc(O)c(O)c1)S(=O)(=O)c1ccc(O)c(O)c1 [C176]	0.62 µM
O=C(CCc1ccc(O)c(O)c1)NCc1ccc(Cl)c(C(F)(F)F)c1 [C330, N-(4-chloro-3-(trifluoromethyl)benzyl)-3-(3,4-dihydroxyphenyl)propanamide]	423 µM
CC(C)(C)n1nc(C2CC2)nc1Cc1ccc(O)c(O)c1 [C221]	1610 µM
O=C(O)CCCCNS(=O)(=O)c1ccc(O)c(O)c1 [C249]	663 µM
O=C1S/C(=C\c2ccc(O)c(O)c2)C(=O)N1Cc1cccc(Br)c1 [C206, (Z)-3-(3-bromobenzyl)-5-(3,4-dihydroxybenzylidene)thiazolidine-2,4-dione]	4.96 µM
CCCCCCCCN(CCCCCC)S(=O)(=O)c1ccc(O)c(O)c1 [C180]	1.34 µM
O=C(Nc1ccccc1)[C@@H]1CCCN1S(=O)(=O)c1ccc(O)c(O)c1 [C193]	552 µM
CCCCCCCCN(Cc1cccc(C(F)(F)F)c1)S(=O)(=O)c1ccc(O)c(O)c1 [C179]	2.4 µM
O=S(=O)(c1ccccc1)N(CCc1ccc(O)c(O)c1)S(=O)(=O)c1ccc(O)c(O)c1 [C197]	0.173 µM

Source: US9718760B2, “Plasminogen activator inhibitor-1 inhibitors and methods of use thereof” (THE REGENTS OF THE UNIVERSITY OF MICHIGAN, priority 2012, dated 2017)
